Measured values from US20110183926A1, “TREATMENT USING CONTINUOUS LOW DOSE APPLICATION OF SUGAR ANALOGS” (UNIVERSITY OF MIAMI, priority 2008, published 2011).

System: MDA-MB-435 cells
Assay: orthotopic human breast cancer mouse model, continuous 2-DG by intraperitoneal osmotic pump
Assay type: in vivo
Settings: 19 μg/ml/hr or 30 mg/kg per 24 hrs continuously for 4 weeks; intraperitoneal osmotic pump filled with 328 mg/ml; MDA-MB-435 orthotopic in CD-1 nude mice
Description: 2×10^6 MDA-MB-435 cells were injected orthotopically to CD-1 nude mice. After two weeks, osmotic pumps (Model 1004, Alzet Inc.) were inserted into the peritoneal cavity under general anesthesia. In one group of animals (n=9), the pumps contained 0.9% NaCl, while in the other group (n=5), the pumps were filled with 2-DG at a concentration of 328 mg/ml. Mice were weighed, and tumor measurements were taken by caliper three times weekly. Tumor measurements were converted to tumor volume by using the formula W×L^2/2. Mice were killed when either W or L exceeded 15 mm. At sacrifice, mice were weighed, and tumors were excised and checked histologically for verification of tumor growth.

Structure (SMILES): O=CC[C@@H](O)[C@H](O)[C@H](O)CO [2-DG, 2-deoxy-D-glucose]
- tumor burden (tumor volume by caliper, W×L^2/2): effectively reduces tumor burden
